From the supplement of paper PMC6206229 come the findings set out here.

Test [1] deals with Staphylococcus aureus ATCC 700699 (MRSA). Briefly: minimum inhibitory concentration; extreme values may be limits of the assay. The method in brief:
(§1)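 Methicillin-susceptible and methicillin-resistant Staphylococcus aureus were assessed by broth microdilution with a resazurin read-out, compounds spanning 0 to 100 µM and incubated for 24 h at 37°C before 30 µl of 0.015% resazurin was added for 2–4 h. For the minimum inhibitory concentration, the lowest concentration whose well stayed blue rather than pink was recorded.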

The subject of test [2] is Staphylococcus aureus ATCC 29213 (MSSA). The test is described as above. The method in brief:
as §1

SMILES strings stand for the structures. Values after ≈ are worked out from the molar mass of the structure shown.

Turning to `OCc1ccc(-c2cncc(Nc3cccc(Cl)c3)c2)cc1`, the minimum inhibitory concentration in test [1] and in test [2] was > 50 µM throughout.
In the case of `O=C(NC1CCN(c2ccnc3ccccc23)C1)c1cccc(C(F)(F)F)c1` (configuration not stated), the minimum inhibitory concentration in test [1] and in test [2] was > 50 µM throughout.
With `CC1CCCCN1C(=O)NCCc1coc(-c2ccc(F)cc2)n1` (configuration not stated), the minimum inhibitory concentration in test [1] and in test [2] was > 50 µM in each case.
For `CN1CCN(S(=O)(=O)c2ccc(-c3ccc4c(Nc5ccc6nn[nH]c6c5)ccnc4c3)cc2)CC1`, the minimum inhibitory concentration in test [1] and in test [2] was > 50 µM in each case.
With `O=C(NCc1ccco1)N1CCN(Cc2ccc(Cl)s2)CC1`, the minimum inhibitory concentration in test [1] and in test [2] was > 50 µM each time.
On to `CCn1ncc2c(NC3CCOCC3)c(CNC(=O)c3ccnn3C)c(C)nc21`, for which the minimum inhibitory concentration in test [1] and in test [2] was > 50 µM in each case.
As for `Cc1ccc2[nH]c3c(NCCN(C)C)ncnc3c2c1`, the minimum inhibitory concentration in test [1] and in test [2] was > 50 µM each time.
On to `O=C(C1CCN(c2cc(-n3cccc3)ncn2)CC1)N1CCc2ccccc2C1`, for which the minimum inhibitory concentration in test [1] and in test [2] was > 50 µM each time.
Take `COc1ccc(Nc2ccccc2NC(=O)c2ccc(O)nc2)cc1`: the minimum inhibitory concentration in test [1] and in test [2] was > 50 µM each time.
In the case of `CCC(Sc1nc2ccccc2o1)C(=O)Nc1nccs1` (configuration not stated), the minimum inhibitory concentration is 50 µM (≈ 16 µg/mL) in test [1] and > 50 µM in test [2].
The like results for `O=C(NCCc1c[nH]c2ccccc12)c1cc2ccccc2oc1=O` were, in that order, > 50 µM and > 50 µM.
For `CN(C)CCNC(=O)N1CCCN(c2ncnc3cc(-c4ccccc4)sc23)CC1`, in that order: > 50 µM and > 50 µM.
For `c1csc(-c2cnc3sc(NCC4CCOCC4)nn23)c1`, in that order: > 50 µM and > 50 µM.
Consider `CC1CC1C(=O)NC1CCN(CC2(c3ccccc3)CCCCC2)CC1` (configuration not stated), for which the minimum inhibitory concentration in test [1] and in test [2] was > 50 µM throughout.
With `CCCCS(=O)(=O)Nc1ccc2cnn(C)c2c1`, the minimum inhibitory concentration in test [1] and in test [2] was > 50 µM each time.
As to `O=C(CCC1CCCCC1)Nc1cccc(-c2nnc(-c3ccco3)o2)c1`, the minimum inhibitory concentration in test [1] and in test [2] was > 50 µM throughout.
On to `CNC(=O)c1cc(S(=O)(=O)N2CCN(c3ccccn3)CC2)cs1`, for which the minimum inhibitory concentration in test [1] and in test [2] was > 50 µM throughout.
As to `Cc1ccc(NC(=O)c2nc[nH]c2C(=O)Nc2nc3ccccc3[nH]2)c(C)c1`, the minimum inhibitory concentration in test [1] and in test [2] was > 50 µM each time.
As for `Cc1ccccc1C(=O)N1N=C(Nc2ccccc2)SC1(C)C`, the minimum inhibitory concentration in test [1] and in test [2] was > 50 µM in each case.
For the molecule `Cc1nn2c(=O)c3c([nH]c2c1-c1ccc(Cl)cc1)CCCC3`, the minimum inhibitory concentration in test [1] and in test [2] was > 50 µM each time.
With `CCc1ccc(S(=O)(=O)Nc2cc(CN3CCN(CCC(C)C)CC3)ccc2C)cc1`, the minimum inhibitory concentration in test [1] and in test [2] was > 50 µM each time.
Regarding `CCCn1nnc(NC(=O)COc2ccc(C3CCCCC3)cc2)n1`, the minimum inhibitory concentration in test [1] and in test [2] was > 50 µM each time.
Turning to `CC(C)(C)C(O)C(Oc1ccc(-c2ccccc2)cc1)n1cncn1` (configuration not stated), the minimum inhibitory concentration in test [1] and in test [2] was > 50 µM throughout.
As to `COc1cncc(-c2cncc(N3CCN(c4ccncc4)CC3)n2)c1`, the minimum inhibitory concentration in test [1] and in test [2] was > 50 µM throughout.
In the case of `COc1cc(-c2cc(-c3ccc(S(C)(=O)=O)cc3)cnc2N)ccc1O`, the minimum inhibitory concentration in test [1] and in test [2] was > 50 µM throughout.
Turning to `CC(C)C(Oc1cccc2ccccc12)C(=O)O` (configuration not stated), the minimum inhibitory concentration in test [1] and in test [2] was > 50 µM throughout.
As for `COc1ccc(C2(C(=O)Nc3ccc(Br)cc3)CCCC2)cc1`, the minimum inhibitory concentration in test [1] and in test [2] was > 50 µM each time.
Turning to `O=C(c1cc2ccccc2o1)N1CCN(Cc2ccc3c(c2)OCO3)CC1`, the minimum inhibitory concentration in test [1] and in test [2] was > 50 µM throughout.
In the case of `Cc1ccccc1CN1CCC(O)(c2ccc(Cl)c(C(F)(F)F)c2)CC1`, the minimum inhibitory concentration in test [1] and in test [2] was > 50 µM in each case.
On to `CC1CCCN(C(=O)C(C)Nc2cc(Cl)ccc2N2CCOCC2)C1` (configuration not stated), for which the minimum inhibitory concentration in test [1] and in test [2] was > 50 µM each time.
As for `O=C(Nc1nc(-c2ccccn2)cs1)C1CC1c1ccccc1F` (configuration not stated), the minimum inhibitory concentration in test [1] and in test [2] was > 50 µM throughout.
In the case of `COc1ccc2nc(C)cc(OCC(=O)Nc3ccccc3OC)c2c1`, the minimum inhibitory concentration in test [1] and in test [2] was > 50 µM each time.
For the molecule `N=C(N)c1ccc(-c2cc(-c3ccccc3)on2)cc1`, the minimum inhibitory concentration in test [1] and in test [2] was > 50 µM in each case.
Take `Cc1ccc(Oc2ccc(NC(=O)CNc3ccccc3N3CCCC3=O)cc2)cc1`: the minimum inhibitory concentration in test [1] and in test [2] was > 50 µM in each case.
Turning to `CC1=NN(c2nc3ccccc3s2)C(=O)C1Cc1cccc2ccccc12` (configuration not stated), the minimum inhibitory concentration in test [1] and in test [2] was > 50 µM throughout.
On to `CCCCCCCCCCCCCCCCOP(=O)([O-])OCC[N+](C)(C)C`, for which the minimum inhibitory concentration in test [1] and in test [2] was > 50 µM throughout.
On to `CCCCc1ccc(C(=O)Nc2nccc3ccccc23)nc1`, for which the minimum inhibitory concentration in test [1] and in test [2] was > 50 µM each time.
As for `COc1ccc2nc(C)cc(OCC(=O)NCc3ccccc3)c2c1`, the minimum inhibitory concentration in test [1] and in test [2] was > 50 µM each time.
`CC(=O)NC[C@H]1CN(c2ccc(N3CCSCC3)c(F)c2)C(=O)O1`: the results for the minimum inhibitory concentration in test [1] and in test [2] were 3.12 µM (≈ 1.1 µg/mL) and 6.25 µM (≈ 2.21 µg/mL), respectively.
With `Cc1[nH]c2cc(F)cc(F)c2c(=O)c1-c1ccc(Oc2ccc(OC(F)(F)F)cc2)cc1`, the minimum inhibitory concentration in test [1] and in test [2] was > 50 µM throughout.
On to `Cc1cc(NCCc2ccccc2)nc(NC(=N)Nc2ccc(Cl)cc2)n1`, for which the minimum inhibitory concentration in test [1] and in test [2] was 25 µM (≈ 9.52 µg/mL) throughout.
For `CCOC(=O)c1noc(N)c1-c1ccccc1`, the minimum inhibitory concentration in test [1] and in test [2] was 50 µM (≈ 11.6 µg/mL) throughout.
Take `O=C(c1ccc(NCCO)cc1)C1C[C@H]1c1ccc(Cl)cc1` (some centres not stated): the minimum inhibitory concentration in test [1] and in test [2] was > 50 µM in each case.
With `Cc1cc(NC(=O)c2ccc(S(=O)(=O)N(Cc3ccccc3)C(C)C)cc2)no1`, the minimum inhibitory concentration in test [1] and in test [2] was > 50 µM throughout.
As for `O=C(NCCN1CCCC1)c1cc(NCCCCN2CCC(F)(F)CC2)nc2ccc(Cl)cc12`, the minimum inhibitory concentration in test [1] and in test [2] was > 50 µM in each case.
On to `CC(=O)Oc1ccccc1C(=O)Nc1ncc([N+](=O)[O-])s1`, for which the minimum inhibitory concentration in test [1] and in test [2] was > 50 µM each time.
As for `O=C(NC1CCCCC1)N1CCN(Cc2ccc3c(c2)OCO3)CC1`, the minimum inhibitory concentration in test [1] and in test [2] was > 50 µM each time.
For the molecule `CN1CCC(c2cc(-c3ccncc3)c(-c3ccc(F)cc3)[nH]2)CC1`, the minimum inhibitory concentration in test [1] and in test [2] was > 50 µM in each case.
For `Cc1ccc2[nH]c(C3CCCNC3)c(-c3ccncc3)c2c1` (configuration not stated), the minimum inhibitory concentration in test [1] and in test [2] was > 50 µM in each case.
Regarding `c1coc(CNc2nc(N3CCCCC3)nc3ccccc23)c1`, the minimum inhibitory concentration in test [1] and in test [2] was > 50 µM each time.
For `O=C(C1CCN(c2nnnn2-c2ccccc2)CC1)N1CCc2ccccc2C1`, the minimum inhibitory concentration in test [1] and in test [2] was > 50 µM in each case.
Consider `Cc1ccc2nc(Cl)c(CNCc3cccs3)cc2c1`, for which the minimum inhibitory concentration in test [1] and in test [2] was > 50 µM each time.
Regarding `COc1cccc(OCC(=O)c2ccc(Br)cc2)c1`, the minimum inhibitory concentration in test [1] and in test [2] was > 50 µM in each case.
Turning to `CCC(NC(=O)c1ccccc1NC(=O)c1ccc(C)cc1)C(=O)OC` (configuration not stated), the minimum inhibitory concentration in test [1] and in test [2] was > 50 µM throughout.
`COc1cc(NC(=O)Cc2nn(C)c(=O)c3ccccc23)ccc1Cl`: the minimum inhibitory concentration in test [1] and in test [2] was > 50 µM each time.
For the molecule `CCn1cnc2c(Nc3cc(F)cc(F)c3)nc(C#N)nc21`, the minimum inhibitory concentration in test [1] and in test [2] was > 50 µM throughout.
`CC(C)(C)c1cc(C(=O)Nc2cccnc2)cc(C(=O)Nc2cccnc2)c1`: the minimum inhibitory concentration in test [1] and in test [2] was > 50 µM throughout.
For `CCc1nc2ccccc2n1CC(O)COc1cc(C)ccc1Cl` (configuration not stated), the minimum inhibitory concentration in test [1] and in test [2] was > 50 µM in each case.
On to `COCC(C)NC(=O)CSc1ncnc2sc(-c3ccccc3)cc12` (configuration not stated), for which the minimum inhibitory concentration in test [1] and in test [2] was > 50 µM each time.
For the molecule `Cc1cc(C)n2nc(C(=O)Nc3cc(C(F)(F)F)ccc3N3CCOCC3)nc2n1`, the minimum inhibitory concentration in test [1] and in test [2] was > 50 µM each time.
In the case of `CNc1nnc(Sc2cnn(-c3ccccc3)c(=O)c2Cl)s1`, the minimum inhibitory concentration in test [1] and in test [2] was > 50 µM each time.
